Literature values in patent publication US6964965B2, “Substituted pyrazine derivatives” (Pharmacia & Upjohn, priority 2002, dated 2005).

Key:
CRF = details: for effect on the “anxiogenic” effects / actions of CRF in the conflict test: conflict test (operant conflict test)
[1] = test system: human epidermal keratinocyte cells; details: cultured human epidermal keratinocyte cells

CNC(=O)c1cc2c(cn1)[nH]c1ccccc12 [FG 7142]
effect on the “anxiogenic” effects / actions of CRF in the conflict test (CRF): enhanced the actions of CRF

CCN(c1nc(C)cc(N2CC=C(c3cccc(F)c3)CC2)n1)c1ccc(C(C)C)cc1SC [2-[N-(2-methylthio-4-isopropylphenyl)-N-ethylamino]-4-[4-(3-fluorophenyl)-1,2,3,6-tetrahydropyridine-1-yl]-6-methylpyrimidine]
keratinocyte cell proliferation promoting effect [1]: showed keratinocyte cell proliferation promoting effect

CCOC(=O)c1ncn2c1CN(C)C(=O)c1cc(F)ccc1-2 [Ro 15-1788]
behavioral activity of the substance alone in the operant conflict test (CRF; alone, without CRF): without behavioral activity alone | effect on the “anxiogenic” effects / actions of CRF in the conflict test (CRF): reversed the effects of CRF in a dose-dependent manner
